{
  "source": "patent US20250375417A1",
  "about": "“OREXIN RECEPTOR 2 (OX2R) AGONIST FOR USE IN NARCOLEPSY TYPE 1 (NT1)” (TAKEDA PHARMACEUTICAL COMPANY LIMITED, priority 2024, published 2025)",
  "key": {"patients with NT1": {"test_system": "patients with NT1", "assay": "Ambulatory blood pressure monitoring (ABPM), nocturnal BP dip, Phase 2 NT1 trial", "assay_type": "in vivo, human", "details": "for DBP 24-h average, LS mean change at Week 6 from baseline / DBP 24-h pattern dip, LS mean change at Week 6 from baseline / DBP 24-h pattern highest, LS mean change at Week 6 from baseline / DBP 24-h pattern lowest, LS mean change at Week 6 from baseline / SBP 24-h average, LS mean change at Week 6 from baseline / SBP 24-h pattern dip, LS mean change at Week 6 from baseline / SBP 24-h pattern highest, LS mean change at Week 6 from baseline / SBP 24-h pattern lowest, LS mean change at Week 6 from baseline: baseline DBP non-dippers", "excerpt": "Blunted nocturnal blood pressure (BP) dip, a potential risk factor for cardiovascular disease, may affect approximately ⅓ of patients with NT1. In the studies described herein, ambulatory blood pressure monitoring (ABPM) recordings can be obtained over an approximately 24.5-hour period and participants should not be confined to the clinical site during most of the 24.5-hour recording period. The ABPM device should be applied on-site. Because it is a requirement that the ABPM devices begin recording in the morning before the first morning dose (or similar time if performed during screening period), site staff may opt to confine participants in the evening before fitting participants with the ABPM monitoring device. If the participant is travelling to the site for the ABPM fitting, they may delay their first morning dose of study medication (to be taken no later than 10 AM) if needed. Participants who are confined the evening prior should also take their study drug right after the ABPM recording starts. For the ABPM during the screening period, the recording should begin between 8:00 AM±2 hours. Sites should ensure that all recordings meet the minimum threshold of acceptability. […] Participants will be trained on the use of the device with NT1.\nUsing functional data analysis, systolic BP (SBP) and diastolic BP (DBP) can be estimated in 24-hour patterns and key parameters, such as average, waveform amplitude, lowest and highest points, and dip amplitude (defined as [average−lowest]/average) can be extracted for each subject-visit. Non-dippers are defined as DBP 24-hour dip<13.44, as projected from a DBP fixed-window daytime to nighttime dip of <10%.\nBlunted nocturnal blood pressure (BP) dip, a potential risk factor for cardiovascular disease, may affect approximately ⅓ of patients with narcolepsy type 1 (NT1). Ambulatory BP monitor (ABPM) data from 112 study patients with NT1 was measured. Using functional data analysis, systolic BP (SBP) and diastolic BP (DBP) were estimated in 24-hour patterns and key parameters were extracted, such as average, waveform amplitude, lowest and highest values, and dip amplitude (defined as [average-lowest]/average) at baseline and Week 6. […] Non-dippers were defined as having DBP 24-hour dip below a threshold corresponding to DBP daytime (6 am-10 pm) to nighttime ([…]) drop of <10%. Longitudinal changes in BP parameters were quantified across five randomized treatment arms (placebo, Compound A 0.5 mg twice 3 hours apart, 2 mg twice 3 hours apart, 2 mg then 5 mg 3 hours later, and 7 mg once-daily) at Week 6 post-baseline. Associations between BP and sleep parameters were assessed longitudinally by matching ABPM data from baseline and Week 6 with nocturnal polysomnography data from baseline and Week 8, respectively."}, "participants with NT1": {"test_system": "participants with NT1", "assay": "At-home continuous accelerometry of sleep, Phase 2 NT1 trial", "assay_type": "in vivo, human", "excerpt": "Polysomnography (PSG) was collected at baseline and after 27 and 54 days of treatment. Sleep was manually scored following AASM guidelines; sleep metrics were extracted then computed by whole night and by quarter-night. Continuous accelerometry (Empatica EmbracePlus watch) allowed assessment of sleep in a naturalistic manner at home. Daily sleep diaries were used to capture subjective reports. Mixed effects models were fit with treatment, quarter-night, visit, and their interactions as fixed effects and random intercepts per subject. A reference PSG dataset (Vilela M, et al. J Sleep Res 2024; e14216) from CHU Montpellier (49 clinical controls and 114 patients with NT1, all drug-free) was analyzed to establish DNS characteristics of NT1.\nConsistent with sleep diaries, adverse events of mild to moderate insomnia were reported by 48% of Compound A-treated participants and most resolved within 1 week. […] Conclusion: Treatment with Compound A may help normalize REM architecture and reduce disturbing dreams without changing WASO or deep sleep."}},
  "note": "Where “and” joins values, the source holds several entries; their conditions need not be identical. Identical values can stand only once.",
  "data": [
    {"smiles": "CCS(=O)(=O)N[C@@H]1[C@H](Cc2cccc(-c3cc(F)cc(F)c3)c2F)N(C(=O)C(C)(C)O)CC1(F)F", "note": "[Compound A, N-{(2S,3R)-4,4-difluoro-1-(2-hydroxy-2-methylpropanoyl)-2-[(2,3′,5′-trifluoro[1,1′-biphenyl]-3-yl)methyl]pyrrolidin-3-yl}ethanesulfonamide]", "values": [
      {"measurement": "SBP or DBP dip, change from baseline at Week 6", "setting": "patients with NT1; baseline DBP dippers (n=73), either treatment arm", "result": "no significant changes"},
      {"measurement": "DBP 24-h average, LS mean change at Week 6 from baseline", "setting": "patients with NT1; 0.5 mg/0.5 mg", "result": 0.17},
      {"measurement": "DBP 24-h pattern dip, LS mean change at Week 6 from baseline", "setting": "patients with NT1; 0.5 mg/0.5 mg", "result": "2.7% and 2.67%"},
      {"measurement": "DBP 24-h pattern highest, LS mean change at Week 6 from baseline", "setting": "patients with NT1; 0.5 mg/0.5 mg", "result": 0.75},
      {"measurement": "DBP 24-h pattern lowest, LS mean change at Week 6 from baseline", "setting": "patients with NT1; 0.5 mg/0.5 mg", "result": "−1.73"},
      {"measurement": "SBP 24-h average, LS mean change at Week 6 from baseline", "setting": "patients with NT1; 0.5 mg/0.5 mg", "result": "−1.42"},
      {"measurement": "SBP 24-h pattern dip, LS mean change at Week 6 from baseline", "setting": "patients with NT1; 0.5 mg/0.5 mg", "result": 1.20, "unit": "%"},
      {"measurement": "SBP 24-h pattern highest, LS mean change at Week 6 from baseline", "setting": "patients with NT1; 0.5 mg/0.5 mg", "result": "−0.87"},
      {"measurement": "SBP 24-h pattern lowest, LS mean change at Week 6 from baseline", "setting": "patients with NT1; 0.5 mg/0.5 mg", "result": "−2.48"},
      {"measurement": "DBP 24-h average, LS mean change at Week 6 from baseline", "setting": "patients with NT1; 2 mg/2 mg", "result": "−0.08"},
      {"measurement": "DBP 24-h pattern dip, LS mean change at Week 6 from baseline", "setting": "patients with NT1; 2 mg/2 mg", "result": "7.9% and 7.91%"},
      {"measurement": "DBP 24-h pattern highest, LS mean change at Week 6 from baseline", "setting": "patients with NT1; 2 mg/2 mg", "result": 1.62},
      {"measurement": "DBP 24-h pattern lowest, LS mean change at Week 6 from baseline", "setting": "patients with NT1; 2 mg/2 mg", "result": "−5.93"},
      {"measurement": "SBP 24-h average, LS mean change at Week 6 from baseline", "setting": "patients with NT1; 2 mg/2 mg", "result": 0.05},
      {"measurement": "SBP 24-h pattern dip, LS mean change at Week 6 from baseline", "setting": "patients with NT1; 2 mg/2 mg", "result": 5.36, "unit": "%"},
      {"measurement": "SBP 24-h pattern highest, LS mean change at Week 6 from baseline", "setting": "patients with NT1; 2 mg/2 mg", "result": 1.45},
      {"measurement": "SBP 24-h pattern lowest, LS mean change at Week 6 from baseline", "setting": "patients with NT1; 2 mg/2 mg", "result": "−6.55"},
      {"measurement": "DBP 24-h average, LS mean change at Week 6 from baseline", "setting": "patients with NT1; 2 mg/5 mg", "result": "−3.40"},
      {"measurement": "DBP 24-h pattern dip, LS mean change at Week 6 from baseline", "setting": "patients with NT1; 2 mg/5 mg", "result": "8.1% and 8.11%"},
      {"measurement": "DBP 24-h pattern highest, LS mean change at Week 6 from baseline", "setting": "patients with NT1; 2 mg/5 mg", "result": "−1.18"},
      {"measurement": "DBP 24-h pattern lowest, LS mean change at Week 6 from baseline", "setting": "patients with NT1; 2 mg/5 mg", "result": "−8.71"},
      {"measurement": "SBP 24-h average, LS mean change at Week 6 from baseline", "setting": "patients with NT1; 2 mg/5 mg", "result": "−4.13"},
      {"measurement": "SBP 24-h pattern dip, LS mean change at Week 6 from baseline", "setting": "patients with NT1; 2 mg/5 mg", "result": 4.11, "unit": "%"},
      {"measurement": "SBP 24-h pattern highest, LS mean change at Week 6 from baseline", "setting": "patients with NT1; 2 mg/5 mg", "result": "−1.86"},
      {"measurement": "SBP 24-h pattern lowest, LS mean change at Week 6 from baseline", "setting": "patients with NT1; 2 mg/5 mg", "result": "−8.80"},
      {"measurement": "DBP 24-h average, LS mean change at Week 6 from baseline", "setting": "patients with NT1; 7 mg QD", "result": "−0.75"},
      {"measurement": "DBP 24-h pattern dip, LS mean change at Week 6 from baseline", "setting": "patients with NT1; 7 mg QD", "result": "6.6% and 6.61%"},
      {"measurement": "DBP 24-h pattern highest, LS mean change at Week 6 from baseline", "setting": "patients with NT1; 7 mg QD", "result": 1.26},
      {"measurement": "DBP 24-h pattern lowest, LS mean change at Week 6 from baseline", "setting": "patients with NT1; 7 mg QD", "result": "−5.13"},
      {"measurement": "SBP 24-h average, LS mean change at Week 6 from baseline", "setting": "patients with NT1; 7 mg QD", "result": 1.32},
      {"measurement": "SBP 24-h pattern dip, LS mean change at Week 6 from baseline", "setting": "patients with NT1; 7 mg QD", "result": 3.28, "unit": "%"},
      {"measurement": "SBP 24-h pattern highest, LS mean change at Week 6 from baseline", "setting": "patients with NT1; 7 mg QD", "result": 3.31},
      {"measurement": "SBP 24-h pattern lowest, LS mean change at Week 6 from baseline", "setting": "patients with NT1; 7 mg QD", "result": "−2.44"},
      {"measurement": "DBP 24-hour pattern dip, change from baseline at Week 6", "setting": "patients with NT1; whole population (n=111), any Compound A dose", "result": "no significant changes"},
      {"measurement": "Number of nocturnal awakenings, awakenings >5 min and longest sleep bout (accelerometry)", "setting": "participants with NT1; 2 mg/2 mg cohort (FIG. 7)", "result": "small but statistically significant reductions"},
      {"measurement": "At-home nighttime TST and WASO, change from baseline", "setting": "participants with NT1; accelerometry, overall (FIG. 7)", "result": "minimal changes overall"},
      {"measurement": "At-home TST", "setting": "participants with NT1; week 1 only, 2 mg/5 mg and 7 mg QD cohorts, resolving over time", "result": "reduced TST was observed"}
    ]}
  ]
}
